In PubChem BioAssay AID248 (DTP/NCI, 2004):
Values joined by “and” are separate entries in the source; they are usually repeats but may differ in a detail not shown here. Equal entries are not always repeated. Toxic doses and inconclusive results are not listed. Rule as the data show it: active = T/C of 150% or more; inactive = T/C below 125%.

Tested on: L1210 leukemia ip in BDF1 mice, survival T/C
Test: NCI In Vivo Anticancer Drug Screen. Data for tumor model L1210 Leukemia (intraperitoneal) in B6D2F1 (BDF1) mice
Conditions: endpoint: mean survival time, higher = longer survival
Procedure, shortened: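 Antitumor effect is assessed in tumor-bearing animals. Survival in the compound arm is compared with a vehicle-dosed control arm and expressed as their quotient.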

[1] = dose: 100.0 mg/kg/injection, schedule: Q04DX002 (ip), vehicle: Klucel (hydroxypropylcellulose) (HPC)
[2] = dose: 200.0 mg/kg/injection, schedule: Q04DX002 (ip), vehicle: Klucel (hydroxypropylcellulose) (HPC)
[3] = dose: 400.0 mg/kg/injection, schedule: Q04DX002 (ip), vehicle: Klucel (hydroxypropylcellulose) (HPC)
[4] = dose: 100.0 mg/kg/injection, schedule: Q01DX001 (ip), vehicle: saline
[5] = dose: 200.0 mg/kg/injection, schedule: Q01DX001 (ip), vehicle: saline
[6] = dose: 400.0 mg/kg/injection, schedule: Q01DX001 (ip), vehicle: saline
[7] = dose: 100.0 mg/kg/injection, schedule: Q04DX003 (ip), vehicle: Klucel (hydroxypropylcellulose) (HPC)
[8] = dose: 200.0 mg/kg/injection, schedule: Q01DX009 (ip), vehicle: Klucel (hydroxypropylcellulose) (HPC)
[9] = dose: 200.0 mg/kg/injection, schedule: Q04DX003 (ip), vehicle: Klucel (hydroxypropylcellulose) (HPC)
[10] = dose: 400.0 mg/kg/injection, schedule: Q01DX009 (ip), vehicle: Klucel (hydroxypropylcellulose) (HPC)
[11] = dose: 400.0 mg/kg/injection, schedule: Q04DX003 (ip), vehicle: Klucel (hydroxypropylcellulose) (HPC)
[12] = dose: 100.0 mg/kg/injection, schedule: Q01DX009 (ip), vehicle: Klucel (hydroxypropylcellulose) (HPC)
[13] = dose: 100.0 mg/kg/injection, schedule: Q01DX009 (ip), vehicle: saline with Tween-80
[14] = dose: 100.0 mg/kg/injection, schedule: Q04DX003 (ip), vehicle: saline with Tween-80
[15] = dose: 200.0 mg/kg/injection, schedule: Q01DX009 (ip), vehicle: saline with Tween-80
[16] = dose: 200.0 mg/kg/injection, schedule: Q04DX003 (ip), vehicle: saline with Tween-80
[17] = dose: 400.0 mg/kg/injection, schedule: Q01DX009 (ip), vehicle: saline with Tween-80
[18] = dose: 400.0 mg/kg/injection, schedule: Q04DX003 (ip), vehicle: saline with Tween-80
[19] = dose: 25.0 mg/kg/injection, schedule: Q01DX009 (ip), vehicle: Klucel (hydroxypropylcellulose) (HPC)
[20] = dose: 50.0 mg/kg/injection, schedule: Q01DX009 (ip), vehicle: Klucel (hydroxypropylcellulose) (HPC)
[21] = dose: 50.0 mg/kg/injection, schedule: Q04DX003 (ip), vehicle: Klucel (hydroxypropylcellulose) (HPC)

Measured: T/C

N/N=C/c1cc2ccccc2c2ccccc12
inactive: [1] 97 % of control | [2] 91 % of control | [3] 87 % of control

CC(C)=CCCC(C)CCOC(N)=O (stereo unspecified)
inactive: dose: 100.0 mg/kg/injection, schedule: Q04DX002 (ip), vehicle: saline with Tween-80 104 % of control | dose: 200.0 mg/kg/injection, schedule: Q04DX002 (ip), vehicle: saline with Tween-80 111 % of control

ClC1(Cl)C2CC(C3C4C=CC(C4)C32)C1(Cl)Cl (stereo unspecified)
inactive: dose: 50.0 mg/kg/injection, schedule: Q01DX001 (ip), vehicle: carboxymethylcellulose (CMC) 88 % of control | dose: 400.0 mg/kg/injection, schedule: Q01DX001 (ip), vehicle: carboxymethylcellulose (CMC) 101 % of control

C[C@@H](c1ccccc1)[C@@H](C(=O)O)c1ccccc1
inactive: dose: 50.0 mg/kg/injection, schedule: Q01DX001 (ip), vehicle: saline 109 % of control | [4] 94 % of control | [5] 97 % of control | [6] 97 % of control

COC(=O)c1ccccc1N=NNc1ccc(-c2nc(N)nc(N)n2)cc1
inactive: [7] 100 % of control | [8] 100 % of control | [9] 94 % of control | [10] 100 % of control | [11] 95 % of control

CCCCCCNCCC[P+](c1ccccc1)(c1ccccc1)c1ccccc1
inactive: dose: 12.5 mg/kg/injection, schedule: Q04DX002 (ip), vehicle: saline 91 % of control | dose: 25.0 mg/kg/injection, schedule: Q04DX002 (ip), vehicle: saline 98 % of control | dose: 50.0 mg/kg/injection, schedule: Q04DX002 (ip), vehicle: saline 98 % of control

Cc1ccc(NC(=O)N2CC2C)cc1NC(=O)N1CC1C (stereo unspecified)
active: dose: 20.0 mg/kg/injection, schedule: Q01DX009 (ip), vehicle: saline 197 % of control
inactive: dose: 2.5 mg/kg/injection, schedule: Q01DX009 (ip), vehicle: saline 118 % of control

Cc1cccc(Cl)c1NC(=O)c1cccc([N+](=O)[O-])c1
inactive: [12] 96 % of control | [8] 90 % of control | [10] 93 % of control

CC(C)=CCC/C(C)=C/CN1C(=O)c2ccccc2C1=O
inactive: [13] 103 % of control | [14] 93 % of control | [15] 106 % of control | [16] 102 % of control | [17] 95 % of control | [18] 96 % of control

Cc1ccc(S(=O)(=O)N/N=C/C=C/C=N/NS(=O)(=O)c2ccc(C)cc2)cc1
inactive: [1] 97 % of control | [2] 103 % of control | [3] 94 % of control

CCSc1nc(C(OC)OC)c(Cc2ccccc2)c(=O)[nH]1
inactive: [7] 95 % of control | [9] 89 % of control | [11] 100 % of control

COc1ccc2c(c1Oc1ccc([N+](=O)[O-])cc1[N+](=O)[O-])C13CCN(C)C(C2)C1CCC1(C3)OCCO1 (stereo unspecified)
inactive: dose: 12.5 mg/kg/injection, schedule: Q01DX009 (ip), vehicle: Klucel (hydroxypropylcellulose) (HPC) 98 % of control | [19] 121 % of control | [20] 101 % of control | [12] 102 % of control | [8] 102 % of control | [10] 88 % of control

O=S(=O)(NCCNS(=O)(=O)c1ccccc1)c1ccccc1
inactive: [13] 96 % of control | [15] 94 % of control | [17] 95 % of control

CC1CC(=O)NN1 (stereo unspecified)
inactive: [13] 94 % of control | [15] 90 % of control | [17] 96 % of control

N=c1ccccn1CC(O)COc1cccc([N+](=O)[O-])c1 (stereo unspecified)
inactive: dose: 100.0 mg/kg/injection, schedule: Q04DX002 (ip), vehicle: other 97 % of control | dose: 200.0 mg/kg/injection, schedule: Q04DX002 (ip), vehicle: other 93 % of control

COc1ccc(Sc2cccc3c2C(C)(O)c2c(Sc4ccc(OC)cc4)cccc2C3(C)O)cc1 (stereo unspecified)
inactive: [13] 100 % of control | [14] 97 % of control | [15] 92 % of control | [16] 95 % of control | [17] 92 % of control | [18] 93 % of control

CCCC/C=C/Br
inactive: dose: 100.0 mg/kg/injection, schedule: Q04DX003 (ip), vehicle: saline 100 % of control | dose: 200.0 mg/kg/injection, schedule: Q01DX009 (ip), vehicle: acetone 101 % of control | dose: 200.0 mg/kg/injection, schedule: Q04DX003 (ip), vehicle: saline 108 % of control | dose: 400.0 mg/kg/injection, schedule: Q04DX003 (ip), vehicle: saline 105 % of control

Cn1cc(C(C)(C(=O)O)c2cn(C)c3ccccc23)c2ccccc21
inactive: [4] 104 % of control | [5] 102 % of control | [6] 102 % of control

O=NN(CCF)C(=O)NCCCl
active: dose: 9.0 mg/kg/injection, schedule: Q01DX001 (ip), vehicle: Klucel (hydroxypropylcellulose) (HPC) 185 % of control and 220 % of control | dose: 14.0 mg/kg/injection, schedule: Q01DX001 (ip), vehicle: Klucel (hydroxypropylcellulose) (HPC) 352 % of control and 355 % of control | dose: 21.0 mg/kg/injection, schedule: Q01DX001 (ip), vehicle: Klucel (hydroxypropylcellulose) (HPC) 419 % of control and 564 % of control | dose: 32.0 mg/kg/injection, schedule: Q01DX001 (ip), vehicle: Klucel (hydroxypropylcellulose) (HPC) 746 % of control

O=C1C=C(c2ccccc2)c2cccc3cccc1c23
inactive: dose: 50.0 mg/kg/injection, schedule: Q01DX001 (ip), vehicle: Klucel (hydroxypropylcellulose) (HPC) 98 % of control | dose: 100.0 mg/kg/injection, schedule: Q01DX001 (ip), vehicle: Klucel (hydroxypropylcellulose) (HPC) 87 % of control | dose: 200.0 mg/kg/injection, schedule: Q01DX001 (ip), vehicle: Klucel (hydroxypropylcellulose) (HPC) 92 % of control

Cc1cccc(C(=O)NC(=S)Nc2ccccc2)c1
inactive: dose: 5.0 mg/kg/injection, schedule: Q01DX001 (ip), vehicle: saline 97 % of control | dose: 10.0 mg/kg/injection, schedule: Q01DX001 (ip), vehicle: saline 103 % of control | dose: 20.0 mg/kg/injection, schedule: Q01DX001 (ip), vehicle: saline 97 % of control

Cc1cccc([N+](=O)[O-])c1-c1ccccc1C(=O)O
inactive: [21] 88 % of control | [12] 93 % of control and 95 % of control | [7] 94 % of control | [8] 96 % of control and 103 % of control | [9] 100 % of control | [10] 97 % of control

Nc1c(Cl)ccc2c(Cl)ccnc12
inactive: [4] 111 % of control | dose: 150.0 mg/kg/injection, schedule: Q04DX003 (ip), vehicle: other 89 % of control | [5] 98 % of control | dose: 300.0 mg/kg/injection, schedule: Q04DX003 (ip), vehicle: other 97 % of control | [6] 104 % of control

NC(=O)C(c1ccccc1)N1CCCCC1 (stereo unspecified)
inactive: [19] 87 % of control | dose: 25.0 mg/kg/injection, schedule: Q04DX003 (ip), vehicle: Klucel (hydroxypropylcellulose) (HPC) 96 % of control | [20] 96 % of control | [21] 100 % of control | [12] 97 % of control | [7] 92 % of control and 90 % of control

COc1cc2c(cc1[N+](=O)[O-])-c1ccc([N+](=O)[O-])cc1/C2=N/NC(N)=S
inactive: dose: 75.0 mg/kg/injection, schedule: Q01DX001 (ip), vehicle: carboxymethylcellulose (CMC) 101 % of control

CC(=O)Nc1ccc(NC(=S)NC(=O)COc2ccccc2)cc1
inactive: dose: 50.0 mg/kg/injection, schedule: Q04DX002 (ip), vehicle: saline with Tween-80 102 % of control and 105 % of control | dose: 100.0 mg/kg/injection, schedule: Q01DX001 (ip), vehicle: saline with Tween-80 107 % of control | [13] 102 % of control and 91 % of control | [14] 97 % of control | dose: 200.0 mg/kg/injection, schedule: Q01DX001 (ip), vehicle: saline with Tween-80 98 % of control | [15] 95 % of control and 98 % of control | [16] 90 % of control | dose: 400.0 mg/kg/injection, schedule: Q01DX001 (ip), vehicle: saline with Tween-80 97 % of control | [17] 101 % of control and 87 % of control | [18] 95 % of control
